Assay results from patent publication US10328161B2, “Luciferin derivatives from bicyclic reactants and aminothiol derivatives and methods of use thereof” (The Regents of the University of California, priority 2012, dated 2019).
One block for each molecule: values may come before it.

Columns and labels:
[1] = tested on: PC3M-luc cells; assay: Comparison of in situ luciferin formation and luciferin in PC3M-luc cells (intact and lysed); assay type: cell-based; settings: inferred from intact versus lysed PC3M-luc cells
Procedure: (§1) A Xenogen IVIS Spectrum instrument (Caliper Life Sciences, Hopkinton, Mass.) was used for bioluminescent imaging in all cellular experiments. PC3M-luc cells (kindly provided by Chris Contag, Stanford University) were cultured in Dulbecco's Modified Eagle Medium (DMEM) containing 10% Fetal Bovine Serum (FBS). Prior to assaying, cells were passed and plated (1.3-1.5×10^4 cells/well) in black 96-well plates with clear bottoms (Becton Dickinson and Company, Franklin Lakes, N.J.). Once the cells were ca. 95% confluent, reagents were added for bioluminescent assays.
PC3M-luc cells prepared as described above were washed with HBSS (25 mM glucose) prior to addition of HCBT and D-cysteine (0-500 μM, 1% DMSO) or luciferin (0-500 μM, 1% DMSO) in HBSS (25 mM glucose). For experiments with lysed cells, 100 μL Glo lysis buffer (Promega, Madison, Wis.) was incubated with the PC3M-luc cells for 5 min prior to addition of HCBT and D-cysteine or luciferin. The plates were immediately imaged for 2 h to determine the peak bioluminescent signal produced.

[2] = tested on: PC3M-luc cells; assay: Lifetime of HCBT and D-cysteine in PC3M-luc cells; assay type: cell-based; settings: 100 μM, 30 min incubation, wash, complementary reagent after 0-60 min
Procedure: as §1
The medium was removed from PC3M-luc cells prepared as described above, and HCBT (100 μM, 1% DMSO) or D-cysteine (100 μM, 1% PBS) in DMEM (-FBS) was added. After a 30 min incubation, the HCBT or D-cysteine was removed, the cells were washed with DMEM (-FBS), and fresh DMEM was added. After 0, 15, 30, 45, or 60 min, the second component of luciferin, D-cysteine (100 μM final concentration, 1% PBS) or HCBT (100 μM final concentration, 1% DMSO) in HBSS (25 mM glucose) was added, and the plate was immediately imaged for 2 h to determine the peak bioluminescent signal produced.

[3] = target: T1, caspase 8 (Homo sapiens, UniProt Q14790); assay: Selectivity assay for IETDC: caspase 8; assay type: biochemical
T1 construct: purchased Sigma-Aldrich
Procedure: (§2) Millipore water was used to prepare all aqueous solutions. Luciferase (100 μg/mL) in 50 mM Tris buffer, pH 7.4, with 10 mM MgCl2, 0.1 mM ZnCl2, and 2 mM ATP was added to selectivity assay samples (described below) to determine the relative amount of luciferin formed during incubation. Measurements for bioluminescent assays were performed at 37° C. and were recorded using a Molecular Devices SpectraMax M2 plate reader (Sunnyvale, Calif.). Samples for bioluminescent measurements were placed in white, opaque 96-well plates, which were purchased from Corning Inc. (Corning, N.Y.). ATP was purchased from MP Biomedicals (Solon, Ohio) or Sigma-Aldrich (St. Louis, Mo.), and luciferase was purchased from Promega (Madison, Wis.). Caspase enzymes were purchased from Sigma-Aldrich (St. Louis, Mo.), and caspase inhibitors were purchased from MP Biomedicals (Solon, Ohio).
For determination of caspase selectivity, various caspases (3 and 8:1 unit, 9:0.001 unit) were administered to IETDC or D-cysteine (5 μM) in Tris buffer (50 mM, pH 7.4). […] After each enzyme was incubated with IETDC or D-cysteine for 60 min, 100 μL of a Tris buffer (50 mM, pH 7.4) containing luciferase (100 μg/mL), 10 mM MgCl2, 0.1 mM ZnCl2, and 2 mM ATP was added to 100 μL of the IETDC or D-cysteine solutions and the bioluminescent signal was detected.

[4] = Exogenous H2O2 experiments in mice; assay type: in vivo; settings: for Turn-on: PCL-1 0.5 μmol
Description: (§3) A Xenogen IVIS Spectrum instrument (Caliper Life Sciences, Hopkinton, Mass.) was used for bioluminescent imaging in all animal experiments. Mice were anesthetized prior to injection and during imaging via inhalation of isoflurane. Phosphate Buffered Saline (PBS) was purchased from Thermo Fisher Scientific (Waltham, Mass.), and saline (0.9%) was made from sodium chloride and Millipore water. Isoflurane was purchased from Phoenix Pharmaceuticals, Inc. (St. Joseph, Mo.), and pharmaceutical grade DMSO was purchased from Sigma-Aldrich (St. Louis, Mo.). Medical grade oxygen was purchased from Praxair (Danbury, Conn.).
(§4) FVB-luc^+ (FVB-Tg(CAG-luc,-GFP)L2G85Chco/J) mice were bred at UC Berkeley, and were single or group-housed on a 12:12 light-dark cycle at 22° C. with free access to food and water. All studies were approved and performed according to the guidelines of the Animal Care and Use Committee of the University of California, Berkeley.
Unshaven, male FVB-luc^+ mice were anesthetized with isoflurane and injected IP with a mixture of PCL-2 and D-cysteine (0.05 μmol each, in 50 μL of 1:1 DMSO:PBS), followed immediately by an IP injection of H2O2 (0-4.5 μmol in 100 μL of PBS). Control mice were injected IP with a mixture of HCBT and D-cysteine (0.01 μmol each, in 50 μL of 1:1 DMSO:PBS) immediately prior to H2O2 (4.5 μmol in 100 μL of PBS). Following injections, mice were imaged with an IVIS Spectrum.

[5] = Selectivity assays for dual H2O2 and caspase 8 detection in vitro; assay type: biochemical; settings: for effect of a single inhibitor on the dual-analyte signal: catalase 1 unit or Q-VD-OPh 10 μM, with H2O2 and caspase 8; for effect of both inhibitors together on the dual-analyte signal: catalase 1 unit plus Q-VD-OPh 10 μM combined; for interference with in situ luciferin formation from HCBT and D-cysteine: catalase 1 unit, Q-VD-OPh 10 μM
Procedure: as §2
To quench H2O2 immediately, catalase (1 unit) was subsequently added to some of the solutions. After 60 min, catalase (1 unit) was added to all other solutions containing H2O2 to quench any remaining H2O2. Subsequently, caspase 8 (1 unit) was added to the solutions in the presence or absence of the caspase inhibitor, Q-VD-OPh (10 μM), 15 min prior to IETDC (10 μM) or D-cysteine (5 μM) addition. Following IETDC or D-cysteine addition, the solutions were incubated for 60 min. Additionally, dithiothreitol (1 mM) was added to all solutions at the time of caspase 8 addition to maintain the reduced state of the D-cysteine. To monitor luciferin formation, 100 μL of a Tris buffer (50 mM, pH 7.4) containing luciferase (100 μg/mL), 10 mM MgCl2, 0.1 mM ZnCl2, and 2 mM ATP was added to 100 μL of the PCL-2/IETDC or HCBT/D-cysteine solutions and the bioluminescent signal was detected.

[6] = Lipopolysaccharide inflammation model, H2O2 detection with PCL-2; assay type: in vivo, mice; settings: apocynin 10 mg/kg IP, LPS-treated mice
Description: as §3, §4
Unshaven, female FVB-luc^+ mice, aged 2-5 months, were anesthetized with isoflurane and injected IP with lipopolysaccharides (LPS, 3 mg/kg in 50 μL of saline) or saline (50 μL). For studies with PCL-2 alone, mice were injected IP with either apocynin (10 mg/kg in 20 μL of DMSO) or DMSO (20 μL) 6 h after LPS injection. […]

[7] = tested on: FVB-luc^+ mice; assay: Control: effect of inhibitors and antioxidants on HCBT and D-cysteine luciferin signal in mice; assay type: in vivo
Procedure: (a) Total photon fluxes, 0-15 min post-injection, for mice (n=3) injected with apocynin (IP, 10 mg/kg in 20 μL DMSO) or vehicle (IP, 20 μL DMSO) two min prior to injections of a mixture of HCBT and D-cysteine (IP, 0.01 μmol each, in 50 μL of 1:1 DMSO:PBS). (b) Total photon fluxes, 15-45 min post-injection, for mice (n=3) injected with z-VD(OMe)-OPh (IP, 1 μmol in 20 μL DMSO) or vehicle (IP, 20 μL DMSO) 30 min prior to injections of a mixture of HCBT and D-cysteine (IP, 0.01 μmol each, in 50 μL of 1:1 DMSO:PBS). Error bars are ±SEM.
FIG. 18 depicts bioluminescent signals from HCBT and D-cysteine with ascorbic acid in FVB-luc^+ mice. Total photon fluxes, 30-60 min post-injection, for mice (n=3-4) injected with ascorbic acid (IP, 200 mg/kg in 30 μL saline) or vehicle (IP, 30 μL saline) 4.5 h prior to injections of a mixture of HCBT and D-cysteine (IP, 0.01 μmol each, in 50 μL of 1:1 DMSO:PBS). Error bars are ±SEM.

[8] = tested on: H2O2 and caspase 8; assay: Lipopolysaccharide inflammation model, dual detection with PCL-2 and IETDC; assay type: in vivo; settings: ascorbic acid 200 mg/kg and z-VD-OPh 1 μmol used together, LPS-treated mice
Description: as §3, §4
For studies with PCL-2 and IETDC, mice were injected IP with ascorbic acid (200 mg/kg in 30 μL of saline) or the saline vehicle (30 μL) 30 min prior to IP injection of LPS (3 mg/kg in 50 μL of saline) or saline (50 μL). Two hours after injection of LPS, z-VD(OMe)-OPh (1 μmol in 20 μL of DMSO) or the vehicle, DMSO (20 μL), was injected IP. […]

[9] = Selectivity assay for PCL-2: response to H2O2; assay type: biochemical; settings: H2O2 100 μM and catalase 0.4 mg/mL
Procedure: as §2
Various ROS (100 μM) were administered to PCL-2 or HCBT (5 μM) in Tris buffer (50 mM, pH 7.4) with or without 10 mM MgCl2 and 0.1 mM ZnCl2. […] After an additional 15 min incubation, 100 μL of a Tris buffer (50 mM, pH 7.4) containing luciferase (100 μg/mL), 10 mM MgCl2, 0.1 mM ZnCl2, and 2 mM ATP was added to 100 μL of the PCL-2 or HCBT solutions and the bioluminescent signal was detected.

T1 sequence (Q14790 217-374 limits assumed, species assumed): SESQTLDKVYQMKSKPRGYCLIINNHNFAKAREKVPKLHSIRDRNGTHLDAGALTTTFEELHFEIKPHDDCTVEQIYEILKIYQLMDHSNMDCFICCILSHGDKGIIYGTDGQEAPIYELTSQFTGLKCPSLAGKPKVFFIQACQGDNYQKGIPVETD
T1 sequence (Q14790 385-479 limits assumed, species assumed): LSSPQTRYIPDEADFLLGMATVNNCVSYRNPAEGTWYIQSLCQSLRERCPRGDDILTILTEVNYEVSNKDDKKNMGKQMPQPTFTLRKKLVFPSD

Molecule: O=C(O)[C@H]1CSC(c2nc3ccc(OCc4ccc(B(O)O)cc4)cc3s2)=N1 [PCL-1]
Turn-on ([4]; H2O2 0.037 μmol): 1.5-fold
Turn-on ([4]; H2O2 0.15 μmol): 2.0-fold
Turn-on ([4]; H2O2 0.6 μmol): 2.7-fold
detection limit for H2O2 in vivo ([4]; IP, FVB-luc^+ mice, optimized imaging conditions for each probe): 0.037 µmol

Molecule: COc1cc(C(C)=O)ccc1O [apocynin]
reduction in PCL-2 signal upon treatment [6]: 55%
effect on the luciferin signal from HCBT and D-cysteine in vivo ([7]; apocynin 10 mg/kg or z-VD-OPh 1 μmol IP, HCBT and D-cysteine 0.01 μmol each): do not alter the luciferin signal

Molecule: O=C1O[C@H]([C@@H](O)CO)C(O)=C1O [ascorbic acid]
decrease in dual-probe bioluminescent signal [8]: 30%
effect on the bioluminescent signal from HCBT and D-cysteine ([7]; ascorbic acid 200 mg/kg IP 4.5 h before HCBT and D-cysteine 0.01 μmol each): did not impact the bioluminescent signal

Further lines, with some results ahead:

permeability across the cell membrane compared to luciferin [1]: increased permeability
change in bioluminescent signal on incubation with caspase enzymes ([3]; D-cysteine 5 μM with HCBT, caspases 8, 3, 9): no change in bioluminescent signal
Molecule: N[C@H](CS)C(=O)O [D-cysteine]
cellular lifetime: signal as time between removal and addition of the complementary reagent increases [2]: still fully available for reaction with HCBT

effect of caspase inhibitor on the response of IETDC to caspase 8 ([3]; Q-VD-OPh 10 μM): complete attenuation
effect of a single inhibitor on the dual-analyte signal [5]: attenuated the increase in signal
effect of both inhibitors together on the dual-analyte signal [5]: complete attenuation of signal
Molecule: CC(C)[C@H](NC(=O)c1ccc2ccccc2n1)C(=O)N[C@@H](CC(=O)O)C(=O)COc1c(F)cccc1F [Q-VD-OPh]
interference with in situ luciferin formation from HCBT and D-cysteine [5]: did not interfere with in situ luciferin formation

effect of catalase on the H2O2 turn-on signal of PCL-2 [9]: attenuated
effect of a single inhibitor on the dual-analyte signal [5]: attenuated the increase in signal
effect of both inhibitors together on the dual-analyte signal [5]: complete attenuation of signal
Molecule: catalase
interference with in situ luciferin formation from HCBT and D-cysteine [5]: did not interfere with in situ luciferin formation
